Test results taken from US12319640B2, “Cyclic diones as herbicidal compounds” (SYNGENTA CROP PROTECTION AG, priority 2019, dated 2025).

Tests used:
Experiment in all cases: Glasshouse herbicide test, pre- and post-emergence
Type in all cases: in vivo
[1] = tested on: Avena fatua (AVEFA); settings: 250 g/h, evaluated after 13 days, five-point scale; for percentage damage caused to the plant, AVEFA POST: post-emergence; for percentage damage caused to the plant, AVEFA PRE: pre-emergence
Outline: (§1)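 Pots were sprayed 1 day (pre-emergence) or 8 days (post-emergence) after sowing at 250 g/h, formulated in acetone/water 50:50 with 0.5% Tween 20. Plants were grown in a glasshouse at 24/16 °C day/night, 14 h light and 65% humidity, then damage was scored after 13 days on a five-point scale (5=80-100% … 1=0-19%).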

[2] = tested on: Echinochloa crus-galli (ECHCG); settings: 250 g/h, evaluated after 13 days, five-point scale; for percentage damage caused to the plant, ECHCG POST: post-emergence; for percentage damage caused to the plant, ECHCG PRE: pre-emergence
Outline: as §1

[3] = tested on: Lolium perenne (LOLPE); settings: 250 g/h, evaluated after 13 days, five-point scale; for percentage damage caused to the plant, LOLPE POST: post-emergence; for percentage damage caused to the plant, LOLPE PRE: pre-emergence
Outline: as §1

[4] = tested on: Setaria faberi (SETFA); settings: 250 g/h, evaluated after 13 days, five-point scale; for percentage damage caused to the plant, SETFA POST: post-emergence; for percentage damage caused to the plant, SETFA PRE: pre-emergence
Outline: as §1

[5] = tested on: Alopecurus myosuroides (ALOMY); settings: 250 g/h, evaluated after 13 days, five-point scale; for percentage damage caused to the plant, ALOMY POST: post-emergence; for percentage damage caused to the plant, ALOMY PRE: pre-emergence
Outline: as §1

| Compound | percentage damage caused to the plant, AVEFA POST [1] | percentage damage caused to the plant, AVEFA PRE [1] | percentage damage caused to the plant, ECHCG POST [2] | percentage damage caused to the plant, ECHCG PRE [2] | percentage damage caused to the plant, LOLPE POST [3] | percentage damage caused to the plant, LOLPE PRE [3] | percentage damage caused to the plant, SETFA POST [4] | percentage damage caused to the plant, SETFA PRE [4] | percentage damage caused to the plant, ALOMY POST [5] | percentage damage caused to the plant, ALOMY PRE [5] |
| --- | --- | --- | --- | --- | --- | --- | --- | --- | --- | --- |
| CNC(=O)C1CCC2(CC1)CC(=O)C(c1c(C)cc(-c3ccc(Cl)cn3)cc1C)C(=O)C2 (stereo not drawn) [Compound 1.022] | 5 (5=80-100%) | 5 (5=80-100%) | 5 (5=80-100%) | 5 (5=80-100%) | 5 (5=80-100%) | 5 (5=80-100%) | 5 (5=80-100%) | 5 (5=80-100%) | 5 (5=80-100%) | 5 (5=80-100%) |
| CC#Cc1cc(C)c(C2C(=O)CC3(CCC(NC(=O)Nc4ccccn4)CC3)CC2=O)c(C)c1 (stereo not drawn) [Compound 2.012] | 5 (5=80-100%) | 3 (3=40-59%) | 4 (4=60-79%) | 4 (4=60-79%) | 5 (5=80-100%) | 5 (5=80-100%) | 4 (4=60-79%) | 4 (4=60-79%) | 4 (4=60-79%) | 4 (4=60-79%) |
| CNC(=O)C1CCC2(CC1)CC(=O)C(c1c(C)cc(-c3ccc(F)cn3)cc1C)C(=O)C2 (stereo not drawn) [Compound 1.024] | 5 (5=80-100%) | 5 (5=80-100%) | 5 (5=80-100%) | 5 (5=80-100%) | 5 (5=80-100%) | 5 (5=80-100%) | 5 (5=80-100%) | 5 (5=80-100%) | 5 (5=80-100%) | 5 (5=80-100%) |
| CC#Cc1cc(C)c(C2C(=O)CC3(CCC(NC(C)=O)C3)CC2=O)c(C)c1 (stereo not drawn) [Compound 2.024] | 5 (5=80-100%) | 5 (5=80-100%) | 5 (5=80-100%) | 5 (5=80-100%) | 5 (5=80-100%) | 5 (5=80-100%) | 5 (5=80-100%) | 5 (5=80-100%) | 5 (5=80-100%) | 5 (5=80-100%) |
| CC#Cc1cc(C)c(C2C(=O)CC3(CCC(NC(=O)C(F)F)CC3)CC2=O)c(C)c1 (stereo not drawn) [Compound 2.011] | 5 (5=80-100%) | 5 (5=80-100%) | 5 (5=80-100%) | 5 (5=80-100%) | 5 (5=80-100%) | 5 (5=80-100%) | 5 (5=80-100%) | 5 (5=80-100%) | 5 (5=80-100%) | 5 (5=80-100%) |
| CC(=O)NC1CCC2(CC1)CC(=O)C(c1c(C)cc(-c3ccc(F)cc3)cc1C)C(=O)C2 (stereo not drawn) [Compound 2.027] | 5 (5=80-100%) | 4 (4=60-79%) | 5 (5=80-100%) | 2 (2=20-39%) | 5 (5=80-100%) | 4 (4=60-79%) | 5 (5=80-100%) | 5 (5=80-100%) | 5 (5=80-100%) | 3 (3=40-59%) |
| CC#Cc1cc(C)c(C2C(=O)CC3(CCC(C(=O)NC(=O)c4ccccn4)CC3)CC2=O)c(C)c1 (stereo not drawn) [Compound 1.003] | 5 (5=80-100%) | 4 (4=60-79%) | 5 (5=80-100%) | 5 (5=80-100%) | 5 (5=80-100%) | 4 (4=60-79%) | 5 (5=80-100%) | 5 (5=80-100%) | 5 (5=80-100%) | 4 (4=60-79%) |
| CC#Cc1cc(C)c(C2C(=O)CC3(CCC(NC(=O)C(C)(C)C)CC3)CC2=O)c(C)c1 (stereo not drawn) [Compound 2.005] | 5 (5=80-100%) | 5 (5=80-100%) | 5 (5=80-100%) | 5 (5=80-100%) | 5 (5=80-100%) | 5 (5=80-100%) | 5 (5=80-100%) | 5 (5=80-100%) | 5 (5=80-100%) | 5 (5=80-100%) |
| CC#Cc1cc(C)c(C2C(=O)CC3(CCC(C(=O)NC)CC3)CC2=O)c(OC)c1 (stereo not drawn) [Compound 1.016] | 5 (5=80-100%) | 5 (5=80-100%) | 5 (5=80-100%) | 5 (5=80-100%) | 5 (5=80-100%) | 5 (5=80-100%) | 5 (5=80-100%) | 5 (5=80-100%) | 5 (5=80-100%) | 5 (5=80-100%) |
| CC#Cc1cc(C)c(C2C(=O)CC3(CCC(C(=O)N4CCS(=O)(=O)CC4)CC3)CC2=O)c(C)c1 (stereo not drawn) [Compound 1.007] | 5 (5=80-100%) | 3 (3=40-59%) | 5 (5=80-100%) | 5 (5=80-100%) | 5 (5=80-100%) | 5 (5=80-100%) | 5 (5=80-100%) | 4 (4=60-79%) | 5 (5=80-100%) | 3 (3=40-59%) |
| CC#Cc1cc(C)c(C2C(=O)CC3(CCC(C(=O)NC)CC3)CC2=O)c(C)c1 (stereo not drawn) [Compound 1.002, 3-(2,6-dimethyl-4-prop-1-ynyl-phenyl)-N-methyl-2,4-dioxo-spiro[5.5]undecane-9-carboxamide] | 5 (5=80-100%) | 5 (5=80-100%) | 5 (5=80-100%) | 5 (5=80-100%) | 5 (5=80-100%) | 5 (5=80-100%) | 5 (5=80-100%) | 5 (5=80-100%) | 5 (5=80-100%) | 5 (5=80-100%) |
| CC#Cc1cc(C)c(C2=C(OC(=O)OC)CC3(CCC(C(=O)NC)CC3)CC2=O)c(C)c1 (stereo not drawn) [Compound P1.001] | 5 (5=80-100%) | 5 (5=80-100%) | 5 (5=80-100%) | 5 (5=80-100%) | 5 (5=80-100%) | 5 (5=80-100%) | 5 (5=80-100%) | 5 (5=80-100%) | 5 (5=80-100%) | 5 (5=80-100%) |
